From patent US9982138B2, “Hair color compositions comprising stable violet-blue to blue imidazolium dyes” (Noxell Corporation, priority 2016, dated 2018)
Structures can show the parent of a compound that is named as a salt.

How the values were obtained:
Format in all cases: physicochemical
[1] = In-use disappearance of the dye in ammonia buffer with hydrogen peroxide (UV/visible absorbance); conditions: % loss recorded at 30 minutes in the presence of a 3% peroxide solution at pH 10.58
Procedure: Disappearance of the dye is measured on a Cary 100 UV/visible spectrophotometer. A solution of the dye in 50% aqueous ethanol at a concentration sufficient to give an absorbance of 2.0 at the dye's λmax and buffered at pH 10.6 with ammonia is mixed with an equal volume of 6% hydrogen peroxide in a 1 cm quartz cuvette. […]

[2] = Storage stability: disappearance of the dye on storage at pH 10, 25° C. (UV/visible absorbance); conditions: % loss on 1-month storage at pH 10, 25° C.
Procedure: Disappearance of the dye is measured on a Cary 100 UV/visible spectrophotometer using a 1 cm cuvette. A solution of the dye is prepared at a concentration sufficient to give an absorbance of 0.9-1.1 at the dye's λmax when buffered at pH 10.0. The absorbance is measured after storage at 25° C. Percent disappearance is calculated as the difference between the starting absorbance (A0) and the absorbance (At) at a specific storage period divided by the starting absorbance minus the baseline absorbance (Ab), by the following equation: […]

[3] = Color (λmax) by UV/visible spectrophotometer

Row | SMILES | % Disappearance (In-use) [1] [%] | % Disappearance (Storage) [2] [%] | Color (λmax; nm) [3] [nm]
1 | CCN1CCN(CC)c2cc(/N=N/c3n(CCCN)cc[n+]3CCCN)ccc21.Cl.Cl.[Br-] [Compound 1, (E)-1,3-bis(3-ammoniopropyl)-2-((1,4-diethyl-1,2,3,4-tetrahydroquinoxalin-6-yl)diazenyl)-1H-imidazol-3-ium bromide dichloride] | 2.0 | 2.05 | 587
2 | CCN1CCN(CC)c2cc(/N=N/c3n(CCC[N+](C)(C)C)cc[n+]3CCC[N+](C)(C)C)ccc21 [Compound 2, (E)-2-((1,4-diethyl-1,2,3,4-tetrahydroquinoxalin-6-yl)diazenyl)-1,3-bis(3-(trimethyl-ammonio)propyl)-1H-imidazol-3-ium tribromide] | 0 | 0.71 | 580
3 | CCCCCN1CCN(CCCCC)c2cc(/N=N/c3n(CCCCN)cc[n+]3CCCCN)ccc21.Cl.Cl.[Br-] [Compound 4, (E)-1,3-bis(4-ammoniobutyl)-2-((1,4-dipentyl-1,2,3,4-tetrahydroquinoxalin-6-yl)diazenyl)-1H-imidazol-3-ium bromide dichloride] | 1.85 | 3.86 | 599
4 | CN1CCNc2cc(/N=N/c3n(CCCN)cc[n+]3CCCN)ccc21.Cl.Cl.[Br-] [Compound 3, (E)-1,3-bis(3-ammoniopropyl)-2-((1-methyl-1,2,3,4-tetrahydroquinoxalin-6-yl)diazenyl)-1H-imidazol-3-ium bromide dichloride] | 1.91 | 4.55 | 580

The remaining lines, values ahead:

Row | % Disappearance (In-use) [1] [%] | % Disappearance (Storage) [2] [%] | Color (λmax; nm) [3] [nm] | SMILES
5 | 0.8 | 4.79 | 580 | C=CCN1CCN(CC=C)c2cc(/N=N/c3n(CCCCN)cc[n+]3CCCCN)ccc21 [Compound 7]
6 | 1.28 | 1.27 | 553 | Cn1cc[n+](C)c1/N=N/c1cc2c3c(c1)OCCN3CCO2 [Compound 8, (E)-1,3-dimethyl-2-((2,3,4,5-tetrahydro-1,6-dioxa-3a-azaphenalen-8-yl)diazenyl)-1H-imidazol-3-ium methyl sulfate]
7 | 2.9 | 3.14 | 582 | CCCCCN1CCNc2cc(/N=N/c3n(CCCN)cc[n+]3CCCN)ccc21.Cl.Cl.[Br-] [Compound 5, (E)-1,3-bis(3-ammoniopropyl)-2-((1-pentyl-1,2,3,4-tetrahydroquinoxalin-6-yl)diazenyl)-1H-imidazol-3-ium bromide dichloride]
8 | 1.85 | 3.37 | 587 | CCN1CCN(CC)c2cc(/N=N/c3n(CCCCN)cc[n+]3CCCCN)ccc21 [Compound 9]
9 | 10.86 | 3.47 | 592 | CCN1CCN(CC)c2cc(/N=N/c3n(CCC[N+](C)(C)C)cc[n+]3CCC[N+](C)(C)C)ccc21 [Compound 6]
